Patent US12180159B2, “Activators of the unfolded protein response” (The Board of Trustees of the University of Illinois, priority 2018, dated 2024)

Tests used:
MDA-MB-231 cells = assay: Cell death of MDA-MB-231 cells (annexin V-FITC / PI flow cytometry); type: cell-based, human; details: 24 hours
Experimental: (§1) FIG. 36. Discovery of SERK-F6 (also known as, C(−)-105, (−)-105, (R)-105, (−)-1, or (R)-1), a compound that kills ERα-positive cancer cells. a, Chemical structures of BHPI and racemic compound 1 (i.e. (±)-1), and their cytotoxic activity on T47D breast cancer cells after 24-hour incubations with concentrations as indicated in nM. Cells were stained with annexin V-FITC and PI dyes prior to analysis via flow cytometry. […] Cells were incubated with SERK-F6 or positive control, Raptinal, for 24 hours and then stained with annexin V-FITC and PI dyes and analyzed via flow cytometry. Error bars represent S.E.M of 3 independent replicates. c, IC50 values of SERK-F6 after 24-hour incubation against a panel of cancer cell lines grouped by their reported ERα status. Cell viability was measured by Alamar blue fluorescence and set relative to a vehicle control and a quantitative dead control treated with Raptinal. Error bars represent S.E.M of 3 independent experiments. d, Crystal violet staining of T47D cells after 24-hour incubations with compounds and concentrations as indicated. […] Cell number was determined by MTS.
Through a medicinal chemistry campaign, (±)-1 was discovered to show an unexpected cytotoxic phenotype (FIG. 36A). […] The dose dependent activity of SERK-F6 was determined against a panel of cancer cell lines (FIG. 36C and FIG. 37A) for ERα.

[1] = tested on: MYS and MDG cells (MCF-7 with Y537S or D538G ERα); assay: MYS-luc / MDG-luc orthotopic and metastatic tumor models; type: in vivo, mouse
Description: FIG. 41. […]
FIG. 43. SERK-F6-mediated eradication of MYS/MDG tumors is dependent on quantitative cell killing. a-b, MYS-luc. orthotopic tumors were established in NSG ovariectomized mice (no E2 pellet, ˜45 days to establish) and dosed daily as indicated (n=5-6). b, Treatment of MYS-luc. tumors were stopped after 21 daily doses of SERK-F6 and mice tumor burden was tracked via bioluminescence. […]

ERα cell lines = assay: 24-hour crystal violet assay and long-term cell culturing; type: cell-based, human; details: 24-hour crystal violet assay and long-term culture
Experimental: as §1, with “indicated. Image is representative of 2 independent experiments. e,f, Long-term cell culture experiment with T47D, TDG, and TYS cells.” for “indicated.”, “MTS. […]” for “MTS.”
An important aspect for cytotoxic therapy is the ability to quantitatively kill a cell population. […]

[2] = tested on: D538G mutant tumors (TDG cell line); assay: TDG-luc orthotopic tumor model; type: in vivo, mouse
Description: (§2) FIG. 41. SERK-F6 eradicates mutant ERα primary and metastatic breast cancer. a-c, TYS-luc. orthotopic tumors were established in NSG ovariectomized mice (no E2 pellet, 60 days to establish) and dosed daily as indicated (n=5-6). b, representative examples of bioluminescence images of SERK-F6 treated mice (7 days). d,e, TDG-luc. orthotopic tumors were established in NSG ovariectomized mice (no E2 pellet, 120 days to establish) and dosed daily as indicated (n=4-5). e, Bioluminescence image of SERK-F6 treated mouse with TDG-luc. tumor burden after 7 days. f, MYS-luc. orthotopic tumors were established in NSG ovariectomized mice (no E2 pellet, 45 days to establish) and dosed daily as indicated (n=4-5). g, MDG-luc. orthotopic tumors were established in NSG ovariectomized mice (no E2 pellet, 45 days to establish) and dosed daily as indicated (n=4-5). h, Metastatic model with MDG-luc. cells injected into the tail-vein of NSG ovariectomized mice (no E2 pellet, 1.5 months to establish) and mice were dosed daily as indicated (n=4-5).
FIG. 4A illustrates how IC50's for cell death were determined. 4B tests the ability BHPI, (−)-105, and 01-15 to kill. […] Large orthotopic breast tumors of TYD-Luc cells (T47DERαD538G-luciferase human breast cancer cells) were allowed to form for 4 months in immune suppressed NSG mice. […]

[3] = tested on: Y537S tumors (TYS cell line); assay: TYS-luc orthotopic tumor model, SERK-F6 i.p. and oral; type: in vivo, mouse
Description: as §2
SERK-F6 treatment was again tolerated (FIG. 42E) at higher doses and enough to eradicate tumors (FIG. 42F).

[4] = tested on: partially BHPI-resistant T47D clones 1, 3, 8, and 11; assay: Growth of partially BHPI-resistant T47D clones (MTS); type: cell-based, human; details: 100 nM and 1 μM, 4 days
Experimental: ERα containing T47D human breast cancer cells able to survive in 1 μM BHPI were selected by clonal outgrowth. The effect of 100 nM and 1 μM BHPI and (−)-105 on growth of the (BHPI-sensitive) parental T47D cells and partially BHPI-resistant T47D clones 1, 3, 8, and 11 was evaluated. 4,000 cells/well were plated. Cell number was determined by MTS assay from a standard curve of absorbance versus cell number. […] Thus, in 4 days (−)-105 killed some, but not all, of the resistant cells.

## O=C1Nc2c(C(F)(F)F)cccc2C1(c1ccc(O)cc1)c1ccc(OC(F)(F)F)cc1 (single isomer, unassigned; (-)) [(−)-105, 3-(4-hydroxyphenyl)-3-(4-(trifluoromethoxy)phenyl)-7-(trifluoromethyl)indolin-2-one]
MDA-MB-231 cells
  effects in ERα negative MDA-MB-231 cells: minimal effects
[1]; metastatic model
  effect on metastatic tumor burden: eradicates metastatic tumor burden
[1]; mouse, in vivo
  effect on MYS / MDG tumors: Dramatic tumor regressions
ERα cell lines
  quantitative killing of ERα cell lines: quantitatively kills
[2]; 40 mg/kg oral gavage, 3 days
  efficacy when administered orally: effective when administered orally
[2]; mouse, in vivo
  effect on D538G mutant tumors: destruction of D538G mutant tumors
[3]; 10 mg/kg oral
  tumor regrowth at sub-therapeutic dose: tumors did regrow
[3]; after treatment cessation
  tumor regrowth upon treatment cessation: tumors did not regrow
[3]; dose-dependent, i.p. and oral administration
  effect on Y537S tumors: eradicates Y537S tumors
[4]
  growth of the BHPI-resistant clones: completely blocked the growth of the resistant clones
